Where two headings read alike, the source gives them in different places.
Experiments:
human CB1 receptor = molecular target: T1, human CB1 receptor (Homo sapiens, UniProt P21554); experiment: biochemical; assay type: binding; details: displacement of [3H]CP55940, hCB1 HEK-293 membranes; read-out: CB1 IC50
T1 construct: purchased Perkin Elmer/NEN; host or cells: HEK-293 cells, stably transfected (membranes)
Experimental: (§1) In the present invention, binding affinity is represented by the IC50 value, namely the concentration of a test compound that will displace 50% of a radiolabeled agonist from the CB receptors. […] Preferably these ratios will be obtained for human CB1 and CB2 receptors. The selectivity toward CB2, denoted CB2/CB1 affinity, is calculated as the IC50 value obtained by the test compound for the displacement of the CB1 specific radioligand divided by the IC50 value obtained for the displacement of the CB2 specific radioligand, i.e. the IC50 CB1/IC50 CB2.
The CB1 binding assays were performed by testing the ability of the new compounds to displace [^3H]CP55940 from the CB1 receptor on membranes derived from hCB1 stably transfected HEK-293 cells (Perkin Elmer/NEN). Membranes were diluted in the assay buffer (50 mM Tris-HCl, 2.5 mM EDTA, 5 mM MgCl2, 1 mg/ml BSA, pH=7.4) to 500 μg protein/ml. 50 μl of diluted membranes (25 μg) were incubated with [^3H]CP55940 in the presence or absence of the bicyclic test compounds in a total volume of 0.5 ml. Tested compounds were dissolved in DMSO and diluted in the assay buffer to a final concentration of 0.1% solvent. Control samples were added with identical amount of vehicle. Non-specific binding was measured by the addition of 10 μM of WIN 55212-2. Following 1.5 hours incubation at 30° C. reactions were filtered through Whatman 934A/H filters (presoaked with 0.1% Polyethylenimine (PEI)).
(§2) Binding to CB1 is measured by competitive inhibition of [^3H]CP55940 in HEK-293 cells stably transfected with the human CB1 receptor gene. Binding to CB2 is measured by competitive inhibition of [^3H]WIN55212-2 in CHO cells stably transfected with the human CB2 receptor gene.

[1] = test system: IL-1β secretion from activated RAW 264.7 macrophages; experiment: Inhibition of IL-1β in LPS activated macrophages (ELISA); assay type: cell-based; details: Mus musculus; for inhibition at 10 µM: RAW264.7, 24 h, read-out: inhibition of IL-1β secretion
Experimental: The technique used to quantify the amount of a given protein in a liquid sample, either tissue culture supernatant or body fluid, is based on Enzyme Linked ImmunoSorbent Assay (ELISA) methodology. Either commercially available or established in house, the assay is based on the capture of the protein of interest by specific antibodies bound to the bottom of an ELISA plate well. […] Again the unbound material is washed away, the samples are then incubated with the appropriate substrate yielding a calorimetric reaction. The reaction is stopped and reading is performed in a spectrophotometer at the appropriate wavelength. Samples are tested at least in duplicate and the appropriate standard curve, consisting of serial dilutions of the recombinant target protein, is incorporated on each plate. Concentration of the protein in the sample is calculated from the standard curve.
RAW 264.7 macrophages, a mouse cell line (ATCC # TIB-71), were grown in Dulbecco's modified Eagle's medium (DMEM) with 4 mM L-glutamine adjusted to contain 1.5 g/L sodium bicarbonate, 4.5 g/L glucose, and 10% heat inactivated fetal bovine serum. Cells were grown in tissue culture flasks and seeded at appropriate density into 24 wells tissue culture plates. 0.5×10^6 Raw cells in one milliliter were stimulated with 2 μg/ml Lipopolysaccharide E. coli 055:B5 (DIFCO Laboratories). The mouse macrophages were pre-treated for one hour with controls or 10 μM of bicyclic CB2 ligands and later on activated with LPS. Dexamethasone was used as a positive control at 50 nM. Supernatant was collected 4 hours (for PGE2) and 24 hours (for IL-1β and TNF-α) after activation, and the levels of the inflammatory agent under study were determined by ELISA, as previously described. Inhibition was calculated versus vehicle treated cells.

human CB2 receptor = human CB2 receptor (Homo sapiens, UniProt P34972); experiment: biochemical; assay type: binding; parameters: purchased Perkin Elmer/NEN; host or cells: CHO cells, stably transfected (membranes); details: for CB2/CB1 affinity ratio: IC50 CB1/IC50 CB2; for IC50: displacement of [3H]WIN 55212-2, hCB2 CHO membranes
human CB2 receptor, sequence (P34972 whole entry): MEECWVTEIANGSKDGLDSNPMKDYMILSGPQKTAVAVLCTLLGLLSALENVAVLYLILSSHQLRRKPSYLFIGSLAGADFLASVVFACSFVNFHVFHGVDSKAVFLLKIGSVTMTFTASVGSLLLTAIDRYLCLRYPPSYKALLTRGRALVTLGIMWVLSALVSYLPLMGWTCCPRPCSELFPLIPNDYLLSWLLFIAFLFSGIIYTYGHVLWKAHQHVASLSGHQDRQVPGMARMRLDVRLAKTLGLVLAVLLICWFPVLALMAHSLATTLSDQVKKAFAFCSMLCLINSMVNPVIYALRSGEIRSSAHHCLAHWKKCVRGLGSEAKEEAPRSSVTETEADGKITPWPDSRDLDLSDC
Experimental: as §1
The affinities of the novel bicyclic analogs to the CB2 receptor were determined by their ability to displace [^3H]WIN 55212-2 from the receptor in membranes derived from hCB2 stably transfected CHO cells (Perkin Elmer/NEN). Membranes were diluted in assay buffer (10 mM HEPES, 1 mM MgCl2, 1 mM EDTA, 0.3 mg/ml BSA, pH=7.4) to 500 μg protein/ml. 50 μl of diluted membranes (25 μg) were incubated with 0.8 nM of [^3H]WIN 55212-2 in the presence or absence of several concentrations of the bicyclic test compounds in a total volume of 1 ml. Tested compounds were dissolved and diluted as previously described for the hCB1 assay. Non-specific binding was measured by the addition of 10 μM CP 55940. Following 40 minutes incubation at 30° C. reactions were filtered as previously described. Filters for all binding assays were counted in a β-counter and log of analog concentration versus % of binding was plotted. IC50 values were extrapolated from this plot.
as §2

Female Balb/c mice = test system: Female Balb/c mice
Experimental: The purpose of this study is to test in vivo the anti-inflammatory activity of the compounds in paw edema induced by injection of 1% carrageenan in the animal hind paw. Female Balb/c mice (20 g average body weight, Harlan, Israel) are anesthetized with a combination of xylazine and pentobarbitone diluted in sterile saline, 15 and 6 mg/kg i.p. respectively. Anesthetized mice are injected subcutaneously, in the subplantar region of one (right) paw with 0.05 ml of 1% w/v Carrageenan in sterile water. […] The test compounds, including known anti-inflammatory controls, are dissolved in CREMOPHOR EL®:ethanol and further diluted 1:20 or 1:50 in sterile saline prior to i.p. injection that takes place immediately before the carrageenan injection. Three hours after injection the animals are resedated following the previously described procedure. Paw thickness is measured using a dial thickness gauge (Spring-dial, constant low pressure gauge, Mitutoyo, TG/L-1, 0.01 mm) and paw volume is measured using a plethysmometer (model #7150, Ugo Basile, Italy). Paw Edema is expressed as the difference between the right treated and the left untreated paws of the same animal, either as Δ Paw Volume (ΔPV) in millimeters cube or as Δ Paw Thickness (ΔPT) in millimeters. Each group comprises at least 10 animals. […] At the end of the study, animals are euthanized with an i.p. injection of 100 mg/kg pentobarbitone.
The differences among various treatment groups are analyzed by analysis of variance (ANOVA) followed by post-hoc Fisher test. A value of p<0.05 is considered to be statistically significant.
For sake of comparison, known anti-inflammatory drugs such as Celecoxib and Dexamethasone yield respectively in the range of relevant doses 7% and 26% reduction in paw thickness at 0.1 mg/kg, 16% and 31% at 0.25 mg/kg and 24% and 33% at 0.5 mg/kg. […] It should be kept in mind that these commercially available drugs display serious side effects that prevent chronic uses without complementary protective medication.

Adult female BALB/c mice = assay type: in vivo, mouse; details: i.p. twice
Experimental: Adult female BALB/c mice (20 g average body weight, Harlan, Israel) were sensitized on day 0 and day 1 by application of 30 μl of 0.15% Dinitrofluorobenzene (DNFB) diluted in acetone on the shaved skin of the abdomen. On day 6 the animals were challenged by application of 10 μl of DNFB in acetone on one ear. The contralateral ear was not challenged but received the application of 10 μl acetone. Test compounds were administered at increasing doses from 0 to 15 mg/kg i.p. twice, the first injection was immediately after DNFB challenge (on day 6) and the second injection was 16 hours post challenge (on day 7). Each treatment group comprised at least 7 animals. Dexamethasone (DXM) was used as positive control. Ear thickness was determined (in 0.01 mm units) 24 hours after challenge (and 6 hours after second treatment on day 7) using a dial thickness gauge (Mitutoyo, Japan).
Results are analyzed as ear thickness of DNFB treated over DNFB untreated contralateral ear. The impact of the test compound was further assessed by comparing its mean impact on the animals of the treatment group to the response generated by the appropriate vehicle only.

T1 sequence (P21554 whole entry): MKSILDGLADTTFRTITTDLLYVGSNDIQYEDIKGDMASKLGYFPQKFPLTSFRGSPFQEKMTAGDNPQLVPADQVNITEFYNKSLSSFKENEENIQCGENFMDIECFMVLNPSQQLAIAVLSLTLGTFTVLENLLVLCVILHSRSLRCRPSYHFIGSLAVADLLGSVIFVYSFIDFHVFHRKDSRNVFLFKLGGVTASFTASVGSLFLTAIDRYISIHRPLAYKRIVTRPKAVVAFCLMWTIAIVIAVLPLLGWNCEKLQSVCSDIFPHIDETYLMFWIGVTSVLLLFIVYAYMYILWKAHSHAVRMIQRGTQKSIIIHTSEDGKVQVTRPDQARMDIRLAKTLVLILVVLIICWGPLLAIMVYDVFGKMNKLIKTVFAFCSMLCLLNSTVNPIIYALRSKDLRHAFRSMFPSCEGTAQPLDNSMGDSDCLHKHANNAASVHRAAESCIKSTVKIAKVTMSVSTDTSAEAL

## CCCCCCC(C)(C)c1cc(OC)c(C2CC(=O)C3CC2C3(C)C)c(OC)c1 (single isomer, unassigned; (-)) [Compound B, (−)-4-[4-(1,1-Dimethyl-heptyl)-2,6-dimethoxy-phenyl]-6,6-dimethyl-bicyclo[3.1.1]heptan-2-one]
Human CB1 receptor
  IC50: 2800 nM
[1]
  inhibition at 10 µM: 34%
Human CB2 receptor
  CB2/CB1 affinity ratio: 62
  IC50: 45 nM

## CCCCCCC(C)(C)c1cc(O)c(C2CC(O)C3CC2C3(C)C)c(O)c1 (single isomer, unassigned; (-)) [Compound C, (−)-5-(1,1-Dimethyl-heptyl)-2-(4-hydroxy-6,6-dimethylbicyclo[3.1.1]hept-2-yl)-benzene-1,3-diol]
Human CB1 receptor
  IC50: 31 nM
[1]
  inhibition at 10 µM: 26%
Human CB2 receptor
  CB2/CB1 affinity ratio: 9
  IC50: 3.5 nM

## CCCCCCC(C)(C)c1cc(O)c([C@H]2C/C(=N/O)[C@H]3C[C@@H]2C3(C)C)c(O)c1 [Compound D]
Human CB1 receptor
  IC50: 93 nM
[1]
  inhibition at 10 µM: 67%
Human CB2 receptor
  CB2/CB1 affinity ratio: 27
  IC50: 3.4 nM

## C[C@@H]1C[C@H]2[C@@H]3CCC4=CC(=O)C=C[C@]4(C)[C@@]3(F)[C@@H](O)C[C@]2(C)[C@@]1(O)C(=O)CO [Dexamethasone, reference compound]
[1]; RAW264.7, positive control at 50 nM, 24 hours after LPS activation
  inhibition at 0.05 µM: 97%
Female Balb/c mice; 0.1 mg/kg
  reduction in paw thickness: 26%
Female Balb/c mice; 0.25 mg/kg
  reduction in paw thickness: 31%
Female Balb/c mice; 0.5 mg/kg
  reduction in paw thickness: 33%
Adult female BALB/c mice
  calculated IC50 reduction in ear thickness: 3.2 mg/kg
Adult female BALB/c mice; doses 0 to 15 mg/kg, 24 hours after challenge
  maximal inhibition (reduction in ear thickness): around 80%

Reference: patent US20050020544A1, “Bicyclic CB2 cannabinoid receptor ligands” (priority 2002, published 2005)
